{"source": "paper PMC4607367", "about": "“Gedunin and Azadiradione: Human Pancreatic Alpha-Amylase Inhibiting Limonoids from Neem (Azadirachta indica) as Anti-Diabetic Agents” (PLoS ONE, 2015)", "key": {"[1]": {"target": "T1, Porcine pancreatic α-amylase (PPA) (Sus scrofa, UniProt P00690)", "T1 construct": "purchased SRL, Mumbai, India", "T1 sequence (P00690 16-511)": "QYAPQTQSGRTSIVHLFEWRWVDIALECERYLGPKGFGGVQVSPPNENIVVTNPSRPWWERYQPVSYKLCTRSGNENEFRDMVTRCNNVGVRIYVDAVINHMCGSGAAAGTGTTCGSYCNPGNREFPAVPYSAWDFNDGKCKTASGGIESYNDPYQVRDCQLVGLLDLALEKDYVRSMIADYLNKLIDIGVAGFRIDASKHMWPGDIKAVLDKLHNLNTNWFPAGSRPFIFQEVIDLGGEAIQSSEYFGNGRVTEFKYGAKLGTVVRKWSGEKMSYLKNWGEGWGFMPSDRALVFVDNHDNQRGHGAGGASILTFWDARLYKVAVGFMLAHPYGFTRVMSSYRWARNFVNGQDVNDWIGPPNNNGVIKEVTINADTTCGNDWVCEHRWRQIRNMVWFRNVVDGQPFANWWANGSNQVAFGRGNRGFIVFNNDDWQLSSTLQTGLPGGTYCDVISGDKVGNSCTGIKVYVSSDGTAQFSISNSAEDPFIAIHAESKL", "test": "Porcine pancreatic α-amylase inhibition assay, chromogenic DNSA method (primary screening)", "format": "biochemical", "settings": "starch 1% w/v, pH 6.9, 37°C", "procedure": "The inhibition assay was performed using the chromogenic DNSA method. PPA was used for preliminary screening of α-amylase inhibitors. […] Moreover a high degree gene sequence similarity (~ 90%) exists between human salivary α-amylase (HSA) and PPA as reported by (Buisson et al 1987). Brayer et al (1995) have reported 97% primary sequence similarity between human salivary and human pancreatic α-amylases and a 70% structural similarity between PPA and HPA [11]. Thus, a high degree of similarity between PPA and HPA allows us to use it as the enzyme for screening inhibitors.\nIn brief, the total assay mixture consisting of 0.02 M sodium phosphate buffer, pH6.9, (containing 6 mM NaCl), 0.2–0.25 U of PPA and inhibitors (13.8–214.3 μM) in DMSO was incubated at 37°C for 10 min. After pre-incubation, the substrate starch (1%, w/v) solution was added to the reaction mixture and further incubated for 15 min. The control PPA (0.21 U) without any inhibitor represented 100% enzyme activity. One unit of enzyme activity is defined as the amount of enzyme required to release one micromole of maltose from starch/maltopentaose per min under the assay conditions. The other quantifiers calculated were: % Relative enzyme activity = (enzyme activity of test/enzyme activity of control)*100. % inhibition = (100 − % relative enzyme activity).\nThe IC50 values were determined from plots of percent inhibition versus inhibitor concentration and calculated by logarithmic regression analysis. To eliminate the absorbance produced by the compound, appropriate controls were included. The known PPA/HPA inhibitor acarbose was used as a positive control at a concentration range of 10–50 μM."}, "[2]": {"target": "T2, secreted pancreatic α-amylase of AR42J cells (Rattus norvegicus, UniProt P00689)", "T2 construct": "host or cells: AR42J rat pancreatic acinar cells, induced with 10 nM dexamethasone", "T2 sequence (P00689 16-508)": "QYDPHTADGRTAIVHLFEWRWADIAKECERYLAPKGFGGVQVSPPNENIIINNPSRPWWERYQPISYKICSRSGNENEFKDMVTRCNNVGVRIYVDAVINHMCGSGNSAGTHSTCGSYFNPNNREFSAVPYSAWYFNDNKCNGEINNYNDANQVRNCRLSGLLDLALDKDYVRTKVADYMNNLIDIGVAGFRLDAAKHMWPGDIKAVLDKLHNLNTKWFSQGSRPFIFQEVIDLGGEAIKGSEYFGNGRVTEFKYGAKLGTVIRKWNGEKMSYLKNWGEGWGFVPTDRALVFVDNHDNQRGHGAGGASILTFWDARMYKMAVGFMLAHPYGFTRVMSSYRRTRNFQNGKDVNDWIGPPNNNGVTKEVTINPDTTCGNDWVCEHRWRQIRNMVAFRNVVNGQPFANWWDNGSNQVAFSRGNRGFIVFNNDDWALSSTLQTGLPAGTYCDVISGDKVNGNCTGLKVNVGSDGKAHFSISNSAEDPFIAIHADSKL", "test": "Bioactivity: inhibition of secreted pancreatic α-amylase in dexamethasone-induced AR42J cells, incl. starch load test (DNSA)", "format": "cell-based", "settings": "AR42J", "excerpt": "Appropriate medium and DMSO controls were simultaneously set up."}, "[3]": {"target": "T3, Human pancreatic α-amylase (HPA) (Homo sapiens, UniProt P04746)", "T3 construct": "purchased Sigma Aldrich, USA", "T3 sequence (P04746 16-511)": "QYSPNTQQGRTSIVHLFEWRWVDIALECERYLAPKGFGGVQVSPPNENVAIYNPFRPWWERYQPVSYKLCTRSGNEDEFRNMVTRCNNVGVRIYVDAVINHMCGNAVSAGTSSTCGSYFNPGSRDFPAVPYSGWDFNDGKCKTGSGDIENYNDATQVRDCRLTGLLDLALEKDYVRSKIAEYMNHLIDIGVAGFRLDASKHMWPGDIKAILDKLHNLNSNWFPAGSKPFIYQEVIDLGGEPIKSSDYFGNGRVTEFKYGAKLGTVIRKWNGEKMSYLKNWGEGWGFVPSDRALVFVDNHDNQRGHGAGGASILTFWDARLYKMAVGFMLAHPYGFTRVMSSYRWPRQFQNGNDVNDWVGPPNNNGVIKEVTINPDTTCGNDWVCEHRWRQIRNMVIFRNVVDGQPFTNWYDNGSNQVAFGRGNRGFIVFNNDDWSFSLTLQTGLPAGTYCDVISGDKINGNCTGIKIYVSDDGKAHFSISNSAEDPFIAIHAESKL", "test": "Human pancreatic α-amylase inhibition and stoichiometry (DNSA)", "format": "biochemical", "settings": "percentage inhibition versus molar ratio of HPA and inhibitor; HPA 14.85 μM", "excerpt": "The control HPA (0.25 U) without inhibitors represented 100% enzyme activity."}, "[4]": {"target": "T3, Human pancreatic α-amylase (HPA)", "test": "HPA inhibition kinetics (Michaelis-Menten, Lineweaver-Burk, secondary plots)", "format": "biochemical", "procedure": "The mode of inhibition of HPA by the lead inhibitors azadiradione and gedunin were determined using Michaelis-Menton and Lineweaver-Burk equations. Starch (1–5mg ml^-1) and maltopentaose (0.05–0.4mM) were incubated with inhibitors-HPA for 10 and 2.5 min, respectively and the residual enzyme activity determined by DNSA method for starch and Nelson-Somogyi’s method for maltopentaose.The inhibitor constants(K i) were determined on the basis of mode of inhibition."}, "[5]": {"target": "T3, Human pancreatic α-amylase (HPA)", "test": "Ligand binding to HPA by fluorescence quenching titration, thermodynamic parameters", "procedure": "Ligand binding studies using fluorescence measurements of HPA were carried as described in our earlier report. […] Non-linear and linear regression analyses were used to analyze the data.\nThe thermodynamic parameters, association constants (K a), dissociation constant (K d) and Gibbs free energy (ΔG°) of binding for azadiradione and gedunin were determined at various temperatures 25°C to 60°C by fluorescence quenching studies."}, "[6]": {"tested_on": "AR42J rat pancreatic acinar cells", "settings": "24 h, 3.5 μM", "protocol": "(§1) Cells were seeded at 2×10^4 cells well^-1 onto 96 wells culture dish. […] Appropriate medium and DMSO controls were simultaneously set up. […] At the end of 24 h incubation period the culture media was removed from the samples and fresh culture media (100 μl) containing 20 μl of MTT tetrazolium bromide (5 mg ml^-1) added and incubated for 3 h at 37°C. Metabolically active cells reduce MTT to insoluble purple formazan dye crystals, which were dissolved by addition of 300 μl DMSO solution at the end of the incubation period and quantitated at 550 nm [34]."}, "[7]": {"test": "Cytotoxicity in AR42J cell line (MTT)", "settings": "rat, AR42J pancreatic acinar cells", "protocol": "as §1"}, "[8]": {"tested_on": "AR42J rat pancreatic acinar cells", "test": "Cytotoxicity in AR42J cell line (MTT)", "settings": "AR42J; azadiradione 3.5 μM, gedunin 3.3 μM (Fig 3)", "protocol": "as §1"}, "[9]": {"settings": "linear van't Hoff plot, 298–333 K"}}, "data": [{"smiles": "CC(=O)O[C@@H]1C[C@H]2C(C)(C)C(=O)C=C[C@]2(C)[C@H]2CC[C@]3(C)C(=CC(=O)[C@H]3c3ccoc3)[C@@]21C", "note": "[azadiradione]", "values": [{"measurement": "IC50", "setting": "[1]", "result": 138, "unit": "µM"}, {"measurement": "Secreted amylase inhibition in starch load test", "setting": "[2]; 0.5% (w/v) starch, up to two hours", "result": 22.9, "unit": "%"}, {"measurement": "Amylase inhibition at the cytotoxic IC50 concentration", "setting": "[2]; 24 h, at 11.1, 13.4 and 4.1 μM respectively", "result": 70.1, "unit": "%"}, {"measurement": "inhibition at 3.5 µM", "setting": "[2]; AR-42J, 3.5 μM", "result": 41.8, "unit": "%"}, {"measurement": "Stoichiometry of HPA inactivation", "setting": "[3]", "result": 0.66}, {"measurement": "Ki", "setting": "[4]; maltopentaose as substrate, secondary plots", "result": 42.2, "unit": "µM"}, {"measurement": "Apparent K i ′", "setting": "[4]; starch as substrate, secondary plots", "result": 75.8, "unit": "µM"}, {"measurement": "Mode of HPA inhibition", "setting": "[4]; substrates starch and maltopentaose, Lineweaver-Burk", "result": "mixed"}, {"measurement": "-ΔG°", "setting": "[5]; 298 K", "result": 21.25, "unit": "k J mol^-1"}, {"measurement": "K a", "setting": "[5]; 298 K", "result": 4300, "unit": "M⁻¹"}, {"measurement": "Kd", "setting": "[5]; 298 K", "result": "200 ± 3", "unit": "µM"}, {"measurement": "-ΔG°", "setting": "[5]; 303 K", "result": 20.88, "unit": "k J mol^-1"}, {"measurement": "K a", "setting": "[5]; 303 K", "result": 3900, "unit": "M⁻¹"}, {"measurement": "Kd", "setting": "[5]; 303 K", "result": "200 ± 1", "unit": "µM"}, {"measurement": "-ΔG°", "setting": "[5]; 308 K", "result": 20.27, "unit": "k J mol^-1"}, {"measurement": "K a", "setting": "[5]; 308 K", "result": 2700, "unit": "M⁻¹"}, {"measurement": "Kd", "setting": "[5]; 308 K", "result": "300 ± 5", "unit": "µM"}, {"measurement": "-ΔG°", "setting": "[5]; 313 K", "result": 20.29, "unit": "k J mol^-1"}, {"measurement": "K a", "setting": "[5]; 313 K", "result": 2400, "unit": "M⁻¹"}, {"measurement": "Kd", "setting": "[5]; 313 K", "result": "400 ± 7", "unit": "µM"}, {"measurement": "-ΔG°", "setting": "[5]; 323K", "result": 19.87, "unit": "k J mol^-1"}, {"measurement": "K a", "setting": "[5]; 323K", "result": 1600, "unit": "M⁻¹"}, {"measurement": "Kd", "setting": "[5]; 323K", "result": "600 ± 2", "unit": "µM"}, {"measurement": "-ΔG°", "setting": "[5]; 333K", "result": 18.54, "unit": "k J mol^-1"}, {"measurement": "K a", "setting": "[5]; 333K", "result": 810, "unit": "M⁻¹"}, {"measurement": "Kd", "setting": "[5]; 333K", "result": "1200 ± 30", "unit": "µM"}, {"measurement": "Maximal quenching of intrinsic HPA fluorescence", "setting": "[5]; 350 nm, azadiradione 3.9–118 μM, gedunin 2.0–51.86 μM", "result": 33, "unit": "%"}, {"measurement": "Maximum ΔG° of binding", "setting": "[5]; calculated from binding constants, maximal affinity at 298 K", "result": -5.079, "unit": "kcal/mol"}, {"measurement": "Enthalpy (ΔHvH)", "setting": "[5]; [9]", "result": -10, "unit": "kcal/mol"}, {"measurement": "Entropy (-ΔS)", "setting": "[5]; [9]", "result": 70.09, "unit": "J mol^-1K^-1"}, {"measurement": "Cell death", "setting": "[6]", "result": 8.6, "unit": "%"}, {"measurement": "IC50 at 24 h", "setting": "[7]", "result": 11.1, "unit": "µM"}, {"measurement": "Cell morphology versus controls", "setting": "[8]", "result": "no morphological change"}]}]}
